Experimental data: BigSolDB 2.1

## O=C(O)CCCC[C@@H]1SC[C@@H]2NC(=O)N[C@@H]21
In DMF, 298.65 K
  solubility (mole fraction): 0.00356
In DMF, 303.25 K
  solubility (mole fraction): 0.00413
In DMF, 308.15 K
  solubility (mole fraction): 0.00497
In DMF, 313.15 K
  solubility (mole fraction): 0.00603
In DMF, 318.15 K
  solubility (mole fraction): 0.0075
In DMF, 323.25 K
  solubility (mole fraction): 0.00902
In DMF, 328.15 K
  solubility (mole fraction): 0.0107
In DMF, 333.15 K
  solubility (mole fraction): 0.0128
In DMSO, 298.15 K
  solubility (mole fraction): 0.0378
In DMSO, 303.15 K
  solubility (mole fraction): 0.0425
In DMSO, 308.15 K
  solubility (mole fraction): 0.0479
In DMSO, 313.15 K
  solubility (mole fraction): 0.053
In DMSO, 318.05 K
  solubility (mole fraction): 0.0582
In DMSO, 322.75 K
  solubility (mole fraction): 0.0633
In DMSO, 327.65 K
  solubility (mole fraction): 0.0687
In DMSO, 332.85 K
  solubility (mole fraction): 0.0748
In acetic acid, 298.15 K
  solubility (mole fraction): 0.00226
In acetic acid, 303.15 K
  solubility (mole fraction): 0.00283
In acetic acid, 308.15 K
  solubility (mole fraction): 0.0035
In acetic acid, 313.25 K
  solubility (mole fraction): 0.00424
In acetic acid, 317.95 K
  solubility (mole fraction): 0.00509
In acetic acid, 323.45 K
  solubility (mole fraction): 0.00646
In acetic acid, 327.85 K
  solubility (mole fraction): 0.00766
In acetic acid, 333.25 K
  solubility (mole fraction): 0.00922
In ethanol, 298.15 K
  solubility (mole fraction): 6.35e-05
In ethanol, 302.95 K
  solubility (mole fraction): 8.69e-05
In ethanol, 308.85 K
  solubility (mole fraction): 0.000133
In ethanol, 313.95 K
  solubility (mole fraction): 0.000176
In ethanol, 318.45 K
  solubility (mole fraction): 0.00023
In ethanol, 323.55 K
  solubility (mole fraction): 0.000309
In ethanol, 329.35 K
  solubility (mole fraction): 0.000442
In ethanol, 333.85 K
  solubility (mole fraction): 0.000582
In methanol, 298.15 K
  solubility (mole fraction): 6.92e-05
In methanol, 302.75 K
  solubility (mole fraction): 9.37e-05
In methanol, 308.05 K
  solubility (mole fraction): 0.000143
In methanol, 313.25 K
  solubility (mole fraction): 0.000208
In methanol, 317.85 K
  solubility (mole fraction): 0.000298
In methanol, 323.55 K
  solubility (mole fraction): 0.00046
In methanol, 327.65 K
  solubility (mole fraction): 0.000601
In methanol, 332.95 K
  solubility (mole fraction): 0.000862
In water, 298.15 K
  solubility (mole fraction): 4.97e-06
In water, 303.15 K
  solubility (mole fraction): 8.18e-06
In water, 308.05 K
  solubility (mole fraction): 1.28e-05
In water, 312.75 K
  solubility (mole fraction): 2.06e-05
In water, 318.55 K
  solubility (mole fraction): 3.52e-05
In water, 323.15 K
  solubility (mole fraction): 5.42e-05
In water, 328.95 K
  solubility (mole fraction): 9.12e-05
In water, 332.95 K
  solubility (mole fraction): 0.000129
